Data taken from patent publication US20220257621A1, “CANCER CELL PROLIFERATION SUPPRESSION AGENT AND COMPOSITION FOR SUPPRESSING PROLIFERATION OF CANCER CELLS” (SHOWA DENKO K.K., priority 2019, published 2022).

How the values were obtained:
Assay type in all cases: cell-based
[1] = test system: cell line derived from Lewis lung carcinoma (LLC); assay: Effect (1) of suppressing proliferation of cancer cells accelerated by atmospheric dust (WST-8); conditions: sample 0.001% by mass 24 h, then atmospheric dust 500 μg/mL 48 h, WST-8 absorbance 450 nm relative to control without dust = 1, dust + water = 2.31
Protocol: The effect of the inositol derivative on suppressing the proliferation of cancer cells in a cell line derived from Lewis lung carcinoma (LLC, JCRB Cell Bank) was measured under the following conditions. The LLC cells were seeded at the seeding density of 50000 cells/cm^2 in a culture medium in which a Ham F 10 medium and an L15 medium (both manufactured by Sigma-Aldrich) were mixed at the ratio of 3:7 (volume ratio), and cultured for 24 hours under the conditions of 37° C. and 5% CO2. Next, an aqueous solution of the inositol derivative or an aqueous solution of myo-inositol was added to the culture medium so that the final concentration of the inositol derivative or myo-inositol was 0.001% by mass, or water (pure water) was added to the culture medium, and culturing was further performed for 24 hours. Thereafter, 0.1 mL of a DMSO solution of atmospheric dust (NIST 1648a) was added per 100 mL of the culture medium so that the final concentration of the atmospheric dust in the culture medium was 500 μg/mL, and culturing was further performed for 48 hours in the same conditions as above. Thereafter, the culture medium was replaced with a medium containing 10% (V/V) of WST-8 of Nacalai Tesque Inc., and after further culturing for 3 hours, the absorbance at the wavelength of 450 nm was measured with a microplate reader i-Control (manufactured by Tecan Group Ltd.). […]

[2] = test system: normal human epidermal keratinocytes (NHEK); assay: Effect (1) of suppressing ROS production induced by atmospheric dust (ROS assay kit, fluorescence)
Protocol: The effect of the inositol derivative on suppressing ROS production in normal human epidermal keratinocytes (NHEK, manufactured by KURABO INDUSTRIES LTD.) was measured under the following conditions. The NHEK cells were seeded in a HuMedia KG2 medium manufactured by KURABO INDUSTRIES LTD. at the seeding density of 10000 cells/cm^2, and cultured for 24 hours under the conditions of 37° C. and 5% CO2. Next, an aqueous solution of the inositol derivative or an aqueous solution of myo-inositol was added to the culture medium so that the final concentration of the inositol derivative or myo-inositol was 0.001% by mass, or water (pure water) was added to the culture medium, and culturing was further performed for 24 hours. Thereafter, 0.1 mL of a DMSO solution of atmospheric dust (NIST 1648a) was added per 100 mL of the culture medium so that the final concentration of the atmospheric dust in the culture medium was 500 μg/mL, and culturing was further performed for 48 hours in the same conditions as above. Thereafter, the ROS production amount was measured using a ROS assay kit (manufactured by OZ BIOSCIENCES). […] After washing the cells with PBS again, 100 μL of PBS was added, and the fluorescence intensity at an excitation wavelength of 485 nm/an absorption wavelength of 535 nm was measured with a microplate reader i-Control (manufactured by Tecan Group Ltd.). […]

[3] = test system: cell line derived from Lewis lung carcinoma (LLC); assay: Effect of suppressing invasion of cancer cells (CytoSelect invasion assay kit); conditions: sample 0.001% by mass 24 h, then atmospheric dust 500 μg/mL 6 h + 18 h, fluorescence relative to control without dust = 1, dust + water = 1.67
Protocol: The effect of the inositol derivative on suppressing the invasion of cancer in a cell line derived from Lewis lung carcinoma (LLC, JCRB Cell Bank) was measured under the following conditions. A CytoSelect invasion assay kit manufactured by Cell Biolabs, Inc. was used for a test. The LLC cells were seeded in a chamber plate for invasion tests attached to the above-mentioned invasion assay kit so that the concentration was 100000 cells/mL using a culture medium in which a Ham F10 medium and an L15 medium (both manufactured by Sigma-Aldrich) were mixed at the ratio of 3:7 (volume ratio), and cultured for 24 hours under the conditions of 37° C. and 5% CO2. Next, an aqueous solution of the inositol derivative or an aqueous solution of myo-inositol was added to the culture medium so that the final concentration of the inositol derivative or myo-inositol was 0.001% by mass, or water (pure water) was added to the culture medium, and culturing was further performed for 24 hours. […] Thereafter, the cells were stained using the above-mentioned invasion assay kit, and the fluorescence intensity at an excitation wavelength of 480 nm/an absorption wavelength of 570 nm was measured with a microplate reader i-Control (manufactured by Tecan Group Ltd.). […]

O[C@H]1[C@H](O)[C@@H](O)[C@H](O)[C@@H](O)[C@H]1O [myo-Inositol, myo-inositol]
Relative cell proliferation amount [1]: 2.03
Effect of suppressing ROS production as compared to the water-added group ([2]; 0.001% by mass, atmospheric dust 500 μg/mL): not recognized
Relative ROS production amount ([2]; sample 0.001% by mass 24 h, then atmospheric dust 500 μg/mL 48 h, fluorescence relative to control without dust = 1, dust + water = 1.46): 1.83
Relative cell invasion [3]: 1.53
